The values that follow are results of earlier work, collected in US8183365B2, “Synthetic method for ceratamine A and B and analogs thereof” (The Ohio State University, priority 2009, dated 2012).

For the data set the following is noted: cell-based assay; natural products isolated from sponge Pseudoceratina sp.

Consider `CNc1nc2ccn(C)c(=O)c(Cc3cc(Br)c(OC)c(Br)c3)c-2n1` [ceratamine A, Ceratamine A], for which the antimitotic activity result was “possess antimitotic activity”.

Ceratamine B: the antimitotic activity entry is “possess antimitotic activity”.
